Consider ten compounds from patent publication US20240174634A1, “Aldehyde Dehydrogenase Inhibitors and Their Therapeutic Use” (priority 2020, published 2024).

In series [1] the target is T1, ALDH2 (Homo sapiens, UniProt P05091).
T1 sequence (P05091 18-517): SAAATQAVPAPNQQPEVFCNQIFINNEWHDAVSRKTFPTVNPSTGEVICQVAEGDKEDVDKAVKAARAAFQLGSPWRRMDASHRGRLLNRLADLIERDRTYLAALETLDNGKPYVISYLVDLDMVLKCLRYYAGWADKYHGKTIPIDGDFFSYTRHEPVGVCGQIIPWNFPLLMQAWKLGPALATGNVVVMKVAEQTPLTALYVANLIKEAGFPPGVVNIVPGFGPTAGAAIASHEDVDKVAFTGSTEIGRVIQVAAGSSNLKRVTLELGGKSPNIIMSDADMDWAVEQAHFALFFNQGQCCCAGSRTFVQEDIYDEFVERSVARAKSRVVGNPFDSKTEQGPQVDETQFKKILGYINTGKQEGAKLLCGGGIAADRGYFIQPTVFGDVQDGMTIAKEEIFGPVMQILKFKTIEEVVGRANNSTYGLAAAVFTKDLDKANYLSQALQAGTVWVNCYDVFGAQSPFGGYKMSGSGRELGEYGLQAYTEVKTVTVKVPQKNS
Put plainly: Selectivity biochemical assay, NAD(P)H-Glo Detection System. On the procedure: Materials: ALDH2 was purchased from Abnova. Tris(hydroxymethyl)aminomethane (Tris) was purchased from MP Biomedicals. TCEP, ethylenediaminetetraacetic acid (EDTA), propionaldehyde, DMSO and Tween-20 were purchased from Sigma. Nicotinamide adenine dinucleotide (NAD) was obtained from Abcam. The NAD(P)H-Glo™ Detection System was purchased from Promega. White, non-binding surface, 384 well plates were supplied by Corning (#3574).
Method: Inhibition of ALDH1A3 was assessed using the NAD(P)H-Glo™ Detection System (Cat. No. G9062) from Promega. This assay detects the production of NADH from NAD by ALDH1A3 via the coupled enzymatic conversion of a proluciferin reductase substrate to generate a luminescent signal. Inhibition of ALDH1A3 by small molecule inhibitors will result in reduction or abrogation of luminescence signal increase above background. Inhibition of ALDH1A1, ALDH1A2 and ALDH2 (selectivity assays) were assessed using the same assay.
Compounds were dosed into Corning 384 well assay plates using an Echo acoustic dispenser to give 10 point curves in a 3-fold dilution series. Compounds were dispensed from a 20 mM DMSO stock and initially screened at a top concentration of 20 μM (ALDH1A3) or 250 μM (ALDH1A1, ALDH1A2 & ALDH2). Enzyme was added to the plate in a 5 μL volume, according to the final concentrations in table 1 below, and pre-incubated with compound for 30 minutes at room temperature before the addition of 5 μL of the substrate (propionaldehyde) and cofactor (NAD), to effect final concentrations equal to the Km as shown in Table 1. The assay buffer used consisted of 40 mM Tris for 1A1 (pH 7.6), 1A2 (pH 7.6) and 1A3 (pH 9.0) and 10 mM Tris for ALDH2 (pH 8.0) supplemented with 1 mM TCEP, 0.01% Tween-20, 0.1 mM EDTA. The reaction mix was incubated at 26° C. on a shaking incubator for 30 minutes before being stopped by the addition of 10 μL of the Promega detection reagent and 100×IC50 of inhibitors of the respective isoforms. After stopping the reaction the plate was incubated for 60 minutes at room temperature and the luminescence signal read on a PheraStar FS microplate reader (BMG Labtech) and resulting IC50 values were calculated using Dotmatics software.
Enzyme, substrate and cofactor concentrations were selected to ensure the reaction ran under initial velocity conditions.

Series [2] in a line: In vivo pharmacokinetics in female BALB/c mice. Further details: species or system mouse. The settings on record: for AUC / Cmax: po, 5 mg/kg orally by gavage. On the procedure:
All procedures involving animals were performed in accordance with national Home Office regulations under the Animals (Scientific Procedures) Act 1986 and within guidelines set out by the Institute's Animal Ethics Committee and the United Kingdom Coordinating Committee for Cancer Research's ad hoc Committee on the Welfare of Animals in Experimental Neoplasia. Female BALB/c mice (Charles River Laboratories) at 6 weeks of age were used for the PK analyses. The mice were dosed orally by gavage (5 mg/kg in DMSO:water 1:19 v:v; n=6) or intravenously in the tail vein (1 mg/kg in DMSO:Tween20:saline 10:1:89 v:v:v; n=6). Blood samples (˜20 μL) were taken from the tail vein from each group of mice (2 groups, 3 mice/group) alternated at 5, 15 and 30 minutes, 1, 2, 4 and 6 and 8 hours after dosing. For clarity, group 1 was bled at 5 minutes, 30 minutes, 2 hours and 6 hours; group 2 was bled at 15 minutes, 1 hour, 4 hours and 8 hours. Plasma samples were snap frozen in liquid nitrogen and then stored at −80° C. prior to analysis.
Test compound solutions (1 mg/mL in DMSO) were used to make stock Standard Curve (SC) and Quality Control (QC) solutions at appropriate concentrations. Blank plasma was spiked with stock solutions to produce a 9-point standard curve ranging from 1.5-10,000 […]; with 2 QC concentrations within this range and where the DMSO concentration was 10% of the plasma volume. Plasma PK samples, Standards and QC's were added to individual Eppendorf tubes and DMSO (10% of plasma volume) was added to the plasma PK samples. SC, QC and plasma samples were extracted with methanol (100 μL) containing internal standard. Following protein precipitation, the samples were centrifuged for 10 minutes in a refrigerated centrifuge (4° C.) at 14000 rpm. The supernatants were removed to a 96-well plate and centrifuged for a further 10 minutes in a refrigerated centrifuge (4° C.) at 3700 rpm. Samples were analysed by Liquid Chromatography Mass Spectrometry (LC-MS/MS) for the compound plasma concentrations. Non-compartmental analysis was performed on plasma concentration data using the Excel macro PK Solver 2.0.

A word on the IC50: it is the concentration at which inhibition is half-maximal. Low readings indicate greater potency in that assay, high ones weaker potency in that assay. Usually AUC stands for the area under the concentration-time curve, a measure of exposure. A higher AUC goes with high exposure. By Cmax is commonly meant the highest concentration seen after dosing. For the compound `O=C1CCc2cc(NC(=O)c3scnc3-c3cccc(F)c3)ccc2N1` [ALDHI-1003, 4-(3-fluorophenyl)-N-(2-oxo-3,4-dihydro-1H-quinolin-6-yl)thiazole-5-carboxamide], the 50% inhibitory concentration (IC50) in series [1] is no less than 100 µM. Further, in series [2] (5 mg/kg po vs 1 mg/kg iv), the F turned out to be 100%. For the same compound, in series [2] (mouse, plasma, iv, 1 mg/kg intravenously, read-out: Cl iv), the clearance worked out at 22.1 mL/min/kg. In series [2] (mouse, plasma), this compound registered an AUC of 13.3 µM·h and a maximum concentration (Cmax) of 6.1 µM.
`O=C1CCc2cc(OCCN(CCO)Cc3cccc(F)c3)ccc2N1` [ALDHI-3002, 6-[2-[(3-fluorophenyl)methyl-(2-hydroxyethyl)amino]ethoxy]-3,4-dihydro-1H-quinolin-2-one]: the IC50 in series [1] was no less than 100 µM.
In turn, `CN(CCOc1ccc2c(c1)CCC(=O)N2)C(CO)c1cccc(F)c1` (stereo not shown) [ALDHI-3003, 6-[2-[[1-(3-fluorophenyl)-2-hydroxy-ethyl]-methyl-amino]ethoxy]-3,4-dihydro-1H-quinolin-2-one] came in with an IC50 in series [1] of no less than 100 µM.
With `CCN(CC)CCN(CCOc1ccc2c(c1)CCC(=O)N2)Cc1ccccc1` [ALDHI-3004, 6-[2-[benzyl-[2-(diethylamino)ethyl]amino]ethoxy]-3,4-dihydro-1H-quinolin-2-one], the IC50 in series [1] was no less than 100 µM.
As for `O=C1CCc2cc(OCCN(CCO)Cc3cccnc3)ccc2N1` [ALDHI-3005, 6-[2-[2-hydroxyethyl(3-pyridylmethyl)amino]ethoxy]-3,4-dihydro-1H-quinolin-2-one], the IC50 in series [1] was no less than 100 µM.
In turn, `C[C@H](c1ccccc1)N(CCO)CCOc1ccc2c(c1)CCC(=O)N2` [ALDHI-3006, 6-[2-[2-hydroxyethyl-[(1R)-1-phenylethyl]amino]ethoxy]-3,4-dihydro-1H-quinolin-2-one] had a 50% inhibitory concentration (IC50) in series [1] of no less than 100 µM.
In the case of `C[C@@H](c1ccccc1)N(CCO)CCOc1ccc2c(c1)CCC(=O)N2` [ALDHI-3007, 6-[2-[2-hydroxyethyl-[(1S)-1-phenylethyl]amino]ethoxy]-3,4-dihydro-1H-quinolin-2-one], in series [1], the IC50 is no less than 100 µM.
Compound `CN(CCOc1ccc2c(c1)CCC(=O)N2)C(=O)c1cccc(F)c1` [ALDHI-3008, 3-fluoro-N-methyl-N-[2-[(2-oxo-3,4-dihydro-1H-quinolin-6-yl)oxy]ethyl]benzamide] gave a half-maximal inhibitory concentration (IC50) in series [1] of no less than 100 µM. In series [2] (mouse, plasma), the area under the curve (AUC) worked out at 1.5 µM·h and the Cmax came out at 1.8 µM.
Consider `CN(CCOc1ccc2c(c1)CCC(=O)N2)Cc1cccnc1` [ALDHI-3010, 6-[2-[methyl(3-pyridylmethyl)amino]ethoxy]-3,4-dihydro-1H-quinolin-2-one], for which the IC50 in series [1] is no less than 100 µM.
In series [1], `CN(CCOc1ccc2c(c1)CCC(=O)N2)C(=O)c1cccnc1` [ALDHI-3013, N-methyl-N-[2-[(2-oxo-3,4-dihydro-1H-quinolin-6-yl)oxy]ethyl]pyridine-3-carboxamide] showed an IC50 of no less than 100 µM.
